Drawing on PubChem BioAssay AID328 (DTP/NCI, 2004), this text covers T/C for 15 compounds.

Values joined by “and” are separate entries in the source; they are usually repeats but may differ in a detail not shown here. Equal values may be shown once. Inconclusive results and toxic doses are left out.

In this assay the test system is BDF1 mice, P388 leukemia ip, median survival T/C. The experiment in a line: NCI In Vivo Anticancer Drug Screen. Data for tumor model P388 Leukemia (intraperitoneal) in B6D2F1 (BDF1) mice. The conditions noted are these: endpoint: median survival time, higher = longer survival. An outline of the steps:
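Survival ratio, drug arm over vehicle arm, in mice with a transplanted tumour.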

Setting [1] is: dose: 25.0 mg/kg/injection, schedule: Q01DX009 (ip), vehicle: Klucel (hydroxypropylcellulose) (HPC).
Where [2] appears, read: dose: 50.0 mg/kg/injection, schedule: Q01DX009 (ip), vehicle: Klucel (hydroxypropylcellulose) (HPC).
Where [3] appears, read: dose: 50.0 mg/kg/injection, schedule: Q01DX009 (ip), vehicle: saline with Tween-80.
Where [4] appears, read: dose: 50.0 mg/kg/injection, schedule: Q01DX009 (ip), vehicle: saline.
The mark [5] stands for this setting: dose: 100.0 mg/kg/injection, schedule: Q01DX009 (ip), vehicle: Klucel (hydroxypropylcellulose) (HPC).
Setting [6] is: dose: 100.0 mg/kg/injection, schedule: Q04DX003 (ip), vehicle: Klucel (hydroxypropylcellulose) (HPC).
The mark [7] stands for this setting: dose: 200.0 mg/kg/injection, schedule: Q01DX009 (ip), vehicle: Klucel (hydroxypropylcellulose) (HPC).
Setting [8] is: dose: 200.0 mg/kg/injection, schedule: Q04DX003 (ip), vehicle: Klucel (hydroxypropylcellulose) (HPC).
Where [9] appears, read: dose: 200.0 mg/kg/injection, schedule: Q01DX009 (ip), vehicle: saline with Tween-80.
The mark [10] stands for this setting: dose: 100.0 mg/kg/injection, schedule: Q01DX009 (ip), vehicle: saline with Tween-80.
The mark [11] stands for this setting: dose: 6.25 mg/kg/injection, schedule: Q01DX009 (ip), vehicle: saline.
[12] abbreviates: dose: 12.5 mg/kg/injection, schedule: Q01DX009 (ip), vehicle: saline.
Setting [13] is: dose: 25.0 mg/kg/injection, schedule: Q01DX009 (ip), vehicle: saline.

On to `Cc1ccc(N=Cc2ccccc2O)cc1Cl`, for which the T/C (dose: 100.0 mg/kg/injection, schedule: Q01DX001 (ip), vehicle: saline with Tween-80) was 109 % of control; the T/C (dose: 200.0 mg/kg/injection, schedule: Q01DX001 (ip), vehicle: saline with Tween-80) is 100 % of control; the T/C (dose: 400.0 mg/kg/injection, schedule: Q01DX001 (ip), vehicle: saline with Tween-80) was 100 % of control.
Regarding `CCCCCCCCCCCCCCCCCC[n+]1cccc(C2CCCN2C)c1` (stereo not given) (tested in a mixture with another compound), the T/C under setting [1] was 119 % of control.
Turning to `CCC/C(C)=N/Nc1ccccn1`, the T/C by setting is: (dose: 12.5 mg/kg/injection, schedule: Q01DX009 (ip), vehicle: Klucel (hydroxypropylcellulose) (HPC)) 105 % of control; (dose: 12.5 mg/kg/injection, schedule: Q01DX009 (ip), vehicle: saline with Tween-80) 95 % of control; under setting [1], 95 % of control and 110 % of control; (dose: 25.0 mg/kg/injection, schedule: Q01DX009 (ip), vehicle: saline with Tween-80) 100 % of control; under setting [2], 100 % of control and 120 % of control; under setting [3], 91 % of control and 118 % of control. Further, under setting [4], the T/C was 120 % of control.
For `Cc1ccc(N2C(=O)CC(Sc3ccccc3N)C2=O)cc1` (stereo not given), the T/C is, setting by setting: under setting [2], 105 % of control; (dose: 100.0 mg/kg/injection, schedule: Q01DX001 (ip), vehicle: saline) 100 % of control; under setting [5], 105 % of control; under setting [6], 95 % of control; (dose: 200.0 mg/kg/injection, schedule: Q01DX001 (ip), vehicle: saline) 90 % of control; under setting [7], 105 % of control. The T/C is, setting by setting: under setting [8], 87 % of control; (dose: 400.0 mg/kg/injection, schedule: Q01DX001 (ip), vehicle: saline) 90 % of control.
For the compound `Cc1ccc(C(=O)C2CC2)cc1C`, the T/C runs as follows: (dose: 33.0 mg/kg/injection, schedule: Q01DX009 (ip), vehicle: saline with Tween-80) 96 % of control; under setting [3], 103 % of control; (dose: 50.0 mg/kg/injection, schedule: Q04DX003 (ip), vehicle: saline with Tween-80) 104 % of control; (dose: 75.0 mg/kg/injection, schedule: Q01DX009 (ip), vehicle: saline with Tween-80) 111 % of control; (dose: 100.0 mg/kg/injection, schedule: Q04DX003 (ip), vehicle: saline with Tween-80) 112 % of control; under setting [9], 120 % of control. Besides, the T/C (dose: 200.0 mg/kg/injection, schedule: Q04DX003 (ip), vehicle: saline with Tween-80) is 112 % of control.
`Cc1ccc(C(CCC#N)OC(C)C)cc1` (stereo not given): the T/C was 86 % of control under setting [5]; 100 % of control under setting [6]; 109 % of control under setting [7]; 109 % of control under setting [8]; 113 % of control (dose: 400.0 mg/kg/injection, schedule: Q01DX009 (ip), vehicle: Klucel (hydroxypropylcellulose) (HPC)); 109 % of control (dose: 400.0 mg/kg/injection, schedule: Q04DX003 (ip), vehicle: Klucel (hydroxypropylcellulose) (HPC)).
`CCCCCCCCN(C)N=Nc1ccc(Cl)cc1C(=O)O`: the T/C is 94 % of control under setting [10]; 116 % of control under setting [9]; 88 % of control (dose: 400.0 mg/kg/injection, schedule: Q01DX009 (ip), vehicle: saline with Tween-80).
Regarding `O=C1C=C(NC2CCCCC2)CCC1`, the T/C was 96 % of control under setting [4]; 99 % of control (dose: 100.0 mg/kg/injection, schedule: Q01DX009 (ip), vehicle: saline); 99 % of control (dose: 200.0 mg/kg/injection, schedule: Q01DX009 (ip), vehicle: saline).
`O=C1NC(c2ccccc2)(c2ccccc2)C(=O)N1CCS`: the T/C was 89 % of control and 122 % of control under setting [11]; 104 % of control and 107 % of control under setting [12]; 106 % of control and 116 % of control under setting [13]; 98 % of control (dose: 25.0 mg/kg/injection, schedule: Q04DX003 (ip), vehicle: saline); 95 % of control and 105 % of control under setting [4].
In the case of `C1CN(P2(N3CC3)=NP(N3CC3)(N3CC3)=NP(N3CC3)(N3CC3)=N2)CCO1` (stereo not given), the T/C by setting is: under setting [11], 167 % of control and 195 % of control; under setting [12], 227 % of control and 200 % of control; under setting [13], 260 % of control and 155 % of control.
On to `O=C1NC(Cc2ccc(N(CCCl)CCCl)cc2)C(=O)O1` (stereo not given), for which the T/C is 104 % of control (dose: 0.06 mg/kg/injection, schedule: Q01DX009 (ip), vehicle: saline with Tween-80); 150 % of control (dose: 0.12 mg/kg/injection, schedule: Q01DX009 (ip), vehicle: saline with Tween-80); 100 % of control (dose: 0.2 mg/kg/injection, schedule: Q04DX003 (ip), vehicle: saline with Tween-80); 159 % of control (dose: 0.25 mg/kg/injection, schedule: Q01DX009 (ip), vehicle: saline with Tween-80); 112 % of control (dose: 0.3 mg/kg/injection, schedule: Q04DX003 (ip), vehicle: saline with Tween-80); 168 % of control (dose: 0.5 mg/kg/injection, schedule: Q01DX009 (ip), vehicle: saline with Tween-80). Moreover, the T/C (dose: 0.5 mg/kg/injection, schedule: Q04DX003 (ip), vehicle: saline with Tween-80) is 112 % of control; the T/C (dose: 0.8 mg/kg/injection, schedule: Q04DX003 (ip), vehicle: saline with Tween-80) was 154 % of control; the T/C (dose: 1.0 mg/kg/injection, schedule: Q04DX003 (ip), vehicle: saline with Tween-80) was 163 % of control; the T/C (dose: 1.3 mg/kg/injection, schedule: Q04DX003 (ip), vehicle: saline with Tween-80) is 159 % of control; the T/C (dose: 2.0 mg/kg/injection, schedule: Q01DX009 (ip), vehicle: saline with Tween-80) is 230 % of control; the T/C (dose: 2.0 mg/kg/injection, schedule: Q04DX003 (ip), vehicle: saline with Tween-80) was 168 % of control and 172 % of control. For the same compound, the T/C is, setting by setting: (dose: 3.0 mg/kg/injection, schedule: Q04DX003 (ip), vehicle: saline with Tween-80) 200 % of control; (dose: 3.4 mg/kg/injection, schedule: Q04DX003 (ip), vehicle: saline with Tween-80) 150 % of control; (dose: 4.5 mg/kg/injection, schedule: Q04DX003 (ip), vehicle: saline with Tween-80) 222 % of control; (dose: 5.2 mg/kg/injection, schedule: Q04DX003 (ip), vehicle: saline with Tween-80) 154 % of control; (dose: 5.5 mg/kg/injection, schedule: Q01DX009 (ip), vehicle: saline with Tween-80) 230 % of control; (dose: 8.0 mg/kg/injection, schedule: Q01DX009 (ip), vehicle: saline with Tween-80) 230 % of control. Further, the T/C runs as follows: (dose: 8.0 mg/kg/injection, schedule: Q04DX003 (ip), vehicle: saline with Tween-80) 195 % of control; (dose: 12.0 mg/kg/injection, schedule: Q01DX009 (ip), vehicle: saline with Tween-80) 115 % of control; (dose: 27.0 mg/kg/injection, schedule: Q04DX003 (ip), vehicle: saline with Tween-80) 272 % of control (2×) and 207 % of control; (dose: 40.0 mg/kg/injection, schedule: Q04DX003 (ip), vehicle: saline with Tween-80) 157 % of control; (dose: 60.0 mg/kg/injection, schedule: Q04DX003 (ip), vehicle: saline with Tween-80) 119 % of control.
In the case of `CS(=O)C/C(=C/CCCl)c1cccs1` (stereo not given), the T/C under setting [3] was 105 % of control, the T/C under setting [10] was 94 % of control and the T/C under setting [9] is 105 % of control.
In the case of `COc1cc2c(c3c1c(=O)c1cc(OC(C)=O)ccc1n3C)C=CC(C)(C)O2`, the T/C runs as follows: (dose: 10.0 mg/kg/injection, schedule: Q01DX009 (ip), vehicle: Klucel (hydroxypropylcellulose) (HPC)) 100 % of control; (dose: 20.0 mg/kg/injection, schedule: Q01DX009 (ip), vehicle: Klucel (hydroxypropylcellulose) (HPC)) 98 % of control; (dose: 40.0 mg/kg/injection, schedule: Q01DX009 (ip), vehicle: Klucel (hydroxypropylcellulose) (HPC)) 106 % of control.
Take `O=C(O)O.[Ce]`: the T/C was 107 % of control under setting [3] and 107 % of control under setting [10].
Turning to `CC(C)(C)CC(C)(C)c1c(O)cc(O)cc1Cl`, the T/C (dose: 12.5 mg/kg/injection, schedule: Q01DX009 (ip), vehicle: gum acacia) is 99 % of control; the T/C (dose: 25.0 mg/kg/injection, schedule: Q01DX009 (ip), vehicle: gum acacia) is 91 % of control; the T/C (dose: 50.0 mg/kg/injection, schedule: Q01DX009 (ip), vehicle: gum acacia) was 89 % of control.
